Data published in patent US20140255518A1, “Treatment and Prevention of Gastrointestinal Syndrome” (THOMAS JEFFERSON UNIVERSITY HOSPITALS, INC., priority 2011, published 2014).
Where two headings read alike, the source gives them in different places. No end group written: not given here.

Tests used:
[1] = test system: HCT116 cells (P53 wildtype); assay: IR-induced cell death after cGMP preconditioning, HCT116 (P53 wildtype); type: cell-based, human; conditions: HCT116 cells (P53 wildtype) preconditioned with cGMP; FIG. 3 (A)
Protocol: (§1) Experiments were performed to show the requirement of GCC activation in the protection of small intestine and colon cells from apoptosis and genotoxic induced cell death. The role of activation of GCC and of the presence of p53 was also evaluated. Test on cancer cells were performed to compare the protection by cGMP of colon cancer cells from cell death in compared to cGMP's potentiation of cell death in other cancers.

[2] = test system: HCT116P53−/− cells (P53 null); assay: IR-induced cell death after cGMP preconditioning, HCT116 P53 null; type: cell-based, human; conditions: HCT116P53−/− cells (P53 null) preconditioned with cGMP; FIG. 3 (B)
Protocol: as §1

human colon cells = assay: Cell death after irinotecan (CPT11) challenge, human colon cells; type: cell-based; conditions: irinotecan (CPT11, 100 μM)
Protocol: as §1

[3] = test system: human breast cancer cells; assay: CPT11-induced cell death after cGMP preconditioning, breast cancer cells; type: cell-based; conditions: cGMP precondition
Protocol: as §1

human liver cancer cells = assay: CPT11-induced cell death after cGMP preconditioning, liver cancer cells; type: cell-based; conditions: cGMP precondition
Protocol: as §1

[4] = test system: human prostate cancer cells; assay: CPT11-induced cell death after cGMP preconditioning, prostate cancer cells; type: cell-based; conditions: cGMP precondition
Protocol: as §1

HCT116 cells = assay: CPT11-induced cell death after cGMP preconditioning, HCT116 cells; type: cell-based, human; conditions: HCT116 cells preconditioned with cGMP
Protocol: as §1

[5] = test system: irradiated intestinal tissue; conditions: cited from earlier work
[6] = molecular target: ST receptors / guanylate cyclase (Homo sapiens, UniProt P25092); conditions: compared with native ST; cited from earlier work
Chain of ST receptors / guanylate cyclase (P25092 24-1073): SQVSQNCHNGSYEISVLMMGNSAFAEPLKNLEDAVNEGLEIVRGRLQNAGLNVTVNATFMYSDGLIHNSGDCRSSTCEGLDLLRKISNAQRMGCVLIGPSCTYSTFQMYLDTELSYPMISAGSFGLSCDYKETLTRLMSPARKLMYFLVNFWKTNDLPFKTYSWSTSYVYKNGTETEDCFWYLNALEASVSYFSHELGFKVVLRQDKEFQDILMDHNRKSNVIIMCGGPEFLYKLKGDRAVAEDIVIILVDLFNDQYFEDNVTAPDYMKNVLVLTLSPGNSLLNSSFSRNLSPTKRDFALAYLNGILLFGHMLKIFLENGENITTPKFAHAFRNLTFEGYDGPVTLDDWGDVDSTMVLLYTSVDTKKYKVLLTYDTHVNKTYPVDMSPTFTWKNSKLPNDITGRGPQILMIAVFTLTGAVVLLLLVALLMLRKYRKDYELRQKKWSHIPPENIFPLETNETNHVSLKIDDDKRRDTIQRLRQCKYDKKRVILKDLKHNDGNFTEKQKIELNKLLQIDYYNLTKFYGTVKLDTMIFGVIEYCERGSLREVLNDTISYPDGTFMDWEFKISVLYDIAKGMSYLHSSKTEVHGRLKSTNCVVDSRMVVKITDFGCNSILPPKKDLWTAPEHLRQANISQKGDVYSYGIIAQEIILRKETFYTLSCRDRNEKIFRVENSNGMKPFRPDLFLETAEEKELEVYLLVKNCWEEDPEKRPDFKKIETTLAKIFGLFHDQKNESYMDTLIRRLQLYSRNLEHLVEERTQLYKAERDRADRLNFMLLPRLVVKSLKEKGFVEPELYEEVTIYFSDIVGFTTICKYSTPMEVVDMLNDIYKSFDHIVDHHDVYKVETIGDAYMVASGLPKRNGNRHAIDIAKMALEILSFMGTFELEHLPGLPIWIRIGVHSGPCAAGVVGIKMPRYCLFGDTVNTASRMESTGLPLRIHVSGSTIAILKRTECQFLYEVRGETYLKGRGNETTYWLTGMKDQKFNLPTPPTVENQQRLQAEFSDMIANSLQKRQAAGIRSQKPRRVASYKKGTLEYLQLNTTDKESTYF

| Molecule | IR-induced cell death [1] | protection from IR-induced cell death [2] | cell death in response to irinotecan challenge (human colon cells) | cell death induced by CPT11 [3] | cell death induced by CPT11 (human liver cancer cells) | cell death induced by CPT11 [4] | CPT11-induced cell death (HCT116 cells) | P53 dependence of protection from CPT11-induced cell death (HCT116 cells) | level of apoptosis in irradiated intestinal tissue ([5]; mice lacking genes encoding GCC or uroguanylin, cGMP supplementation (cGMP analog injected)) | level of apoptosis in irradiated intestinal tissue ([5]; wild type mice, cGMP supplementation) | binding to ST receptors and activation of guanylate cyclase, level relative to native ST [6] |
| --- | --- | --- | --- | --- | --- | --- | --- | --- | --- | --- | --- |
| Nc1nc2c(ncn2[C@@H]2O[C@@H]3COP(=O)(O)O[C@H]3[C@H]2O)c(=O)[nH]1 [cGMP, cyclic GMP] | resisted IR-induced cell death | protection by cGMP preconditioning did not occur | protected cell death | promoted cell death | promoted cell death | promoted cell death | resisted CPT11-induced cell death | protection was P53 dependent | ameriolated the level of apoptosis | not in wild type mice |  |
| Guanylin: 15 amino acid peptide from mammalian intestine, about 50% sequence homology to ST; native GCC agonist (SEQ ID NO:6, 54) (PGTCEICAYAACTGC; ends and bridges not checked; cysteine pairing not given here; UniProt Q02747 101-115, looked up) |  |  |  |  |  |  |  |  |  |  | 10- to 100 fold less than native ST |
